Measured values published in US20230202982A1, “5-CHLORO-4-HYDROXY-1-METHYL-2-OXO-N-PHENYL-QUINOLINE-3-CARBOXAMIDE POTASSIUM SALT FOR TREATING INFLAMMATORY BOWEL DISEASES” (Aqilion AB, priority 2020, published 2023).
≈ marks a conversion by molar mass, not a printed value. Entries after “also recorded” stand apart in the source; their conditions may differ. Where a name gives a salt, the structure may show the parent alone.

What was measured:
[1] = Solubility in PBS (pH 7.4) and simulated colonic fluid, saturated solutions by HPLC-UV; type: physicochemical; conditions: saturated solution, ambient temperature
Procedure: The solubility and stability at room temperature of Example compound 1 and the free acid compound 5-chloro-4-hydroxy-1-methyl-2-oxo-N-phenyl-quinoline-3-carboxamide (described in Example 1a) above) was determined in PBS (pH 7.4) and in simulated colonic fluid (SCF) at ambient temperature. The SCF was the product FaSSCof obtained from Biorelevant.com prepared according to the manufacturer’s instructions. FaSSCof contains 0.15 mM sodium cholate, 0.3 mM Phospholipids, 0.1 mM Oleate, 120 mM sodium hydroxide, 45 mM TRIS and 76 mM maleate.
Saturated solutions were prepared in these solvents and the concentrations/impurity profile was determined by HPLC-UV using a calibration curve in the range of 1 to 150 µg/ml at 300 nm or 320 nm. Visual evaluation was also performed after every step over the testing period.

[2] = Thermogravimetric analysis (TGA) and differential scanning calorimetry (DSC); type: physicochemical; conditions: heating 20° C./min, nitrogen
Procedure: For the TGA analysis, approximately 5-10 mg of sample of Example Compound 1 was accurately weighed into a pierced Tzero aluminium pan and sealed with a pinhole lid using a crimper. The sample was then loaded into the chamber of a TGA thermal analyser at ambient temperature. A TA Instruments TGA5500 device was used. The sample was then heated at a rate of 20° C./min from 20° C. to 400° C. The purge gas used was nitrogen at a flow rate of 50 cm^3/min.
For the DSC analysis, approximately 2 mg of sample was accurately weighed into a pierced Tzero aluminium pan and sealed using a universal crimper. The sample was then loaded into the chamber of a DSC analyser at ambient temperature. A TA Instruments DSC2500 device was used. The sample was then heated at a rate of 20° C./min from 30° C. to 400° C. The purge gas used was nitrogen at a flow rate of 50 cm^3/min

[3] = test system: Ulcerative Colitis modelled by Dextran Sulphate Sodium (DSS); test: DSS mouse model of Ulcerative Colitis; type: in vivo, C57B1/6 mice; conditions: 1 mg/kg daily oral; for Colitis clinical score: Day 9, vs vehicle-treated controls, FIG. 8; for Colon length: Day 10 termination, FIG. 10
Procedure: Ulcerative Colitis was modelled in C57B1/6 mice by administering Dextran Sulphate Sodium (DSS) in drinking water (1.5% w/v) for 5 days. Mice were monitored daily for weight loss and clinical symptoms of disease for 10 days starting at the beginning of DSS administration.
Anti-TNFα antibody was administered at 500 µg/treatment on Days 0, 2, 4, and 6. Following termination on Day 10, colons were removed and measured. The length and weight of the colon were also assessed.
Compared to naive animals, animals given DSS water developed clinical signs of disease including weight loss and diarrhoea as well as gross pathological signs of disease on experiment termination. […] Shortened length and increased weight:length ratio indicates edema associated with ulcerative colitis.

[4] = Slurry in water for 48 hours, re-examined by XRPD (disproportionation); type: physicochemical; conditions: slurry in water 20 mg / 400 uL, ambient temperature
Procedure: When a sample of Example compound 1 was stored in a slurry in water at 20 mg / 400uL for 48 hours at ambient temperature, recovered, dried by evaporation and re-examined by XRPD, there was no change in the X-ray diffractogram.

[5] = Hygroscopicity by Dynamic Vapour Sorption (DVS); type: physicochemical; conditions: 25° C.; for Hygroscopicity: DVS, 0 to 90% RH; for Reversible weight gain (DVS): analysed to 80% RH
Procedure: Dynamic Vapour Sorption (DVS) analysis was carried out on a sample of Example compound 1.
Approximately 20 mg of sample was placed into a wire-mesh vapour sorption balance pan and loaded into an ‘IgaSorp’ vapour sorption balance (Hiden Analytical Instruments). The sample was then dried by maintaining a 0% humidity environment until no further weight change was recorded.
The sample was then subjected to a step profile from 0 to 90% RH at 10% RH increments. The desorption isotherm was from 90% RH o 0% RH in 10% RH steps. The weight change during the sorption/desorption cycles were then monitored, allowing for the hygroscopic nature of the sample to be determined. Analysis was performed using the following parameters: • Analysis Mode F1 • Wait Time 99% • Sample Temperature 25° C. • Min Time Out 30 Mins • MaxTime Out 180 Mins • Gas Flow Rate 250 ml/min

[6] = listed as 5-chloro-4-hydroxy-1-methyl-2-oxo-N-phenyl-quinoline-3-carboxamide free acid

Row | Structure (SMILES) | Solubility in PBS (pH7.4) ([1]; PBS (pH 7.4), listed as 5-chloro-4-hydroxy-1-methyl-2-oxo-N-phenyl-quinoline-3-carboxamide free acid) | solubility ([1]; simulated colonic fluid (FaSSCof), fassgf or other biorelevant, thermodynamic from solid, SCF (FaSSCof), read-out: Solubility in simulated colonic fluid (SCF)) [µg/mL] | Degradation temperature [2] | Degradation temperature [2, 6] [°C] | Colitis clinical score [3] | Colitis clinical score [3, 6] | Colitis clinical score ([3]; listed as 5-chloro-4-hydroxy-1-methyl-2-oxoN-phenyl-quinoline-3-carboxamide free acid) | Colon length ([3]; vs vehicle-treated controls) | Colon length ([3]; vs vehicle-treated controls, listed as 5-chloro-4-hydroxy-1-methyl-2-oxo-N-phenyl-quinoline-3-carboxamide free acid) | Body weight change (% change from day 1 of experiment) ([3]; vs vehicle-treated controls, FIG. 9) | Degradation temperature ([2]; listed as 5-chloro-4-hydroxy-1-methyl-2-oxo-N-phenyl-quinoline-3-carboxamide lithium salt, lithium salt) | Degradation temperature ([2]; listed as Example Compound 3, lithium salt) | Stability in water slurry: change in X-ray diffractogram [4] | Hygroscopicity [5] | Reversible weight gain (DVS) [5] | Degradation temperature ([2]; listed as 5-chloro-4-hydroxy-1-methyl-2-oxo-N-phenyl-quinoline-3-carboxamide sodium salt, sodium salt) | Degradation temperature ([2]; listed as Example Compound 2, sodium salt)
1 | Cn1c(=O)c(C(=O)Nc2ccccc2)c(O)c2c(Cl)cccc21 [Free Acid, 5-chloro-4-hydroxy-1-methyl-2-oxo-N-phenyl-quinoline-3-carboxamide] | not quantifiable; also recorded: Non quantifiable | 3.44 (≈ 10.5 µM) | 260 °C ±2 °C | 260 | protective effect against the development of the clinical symptoms | significant reduction | lower colitis score | effective at reducing colon shortening | significant increase; also recorded: greater colon length | reduced weight loss | – | – | – | – | – | – | –
2 | Cn1c(=O)c(C(=O)Nc2ccccc2)c([O-])c2c(Cl)cccc21.[Li+] [Example compound 3, 5-chloro-4-hydroxy-1-methyl-2-oxo-N-phenyl-quinoline-3-carboxamide lithium salt] | – | – | – | – | – | – | – | – | – | – | around 360 °C | 360 °C ±2 °C | slight changes | slightly hygroscopic | less than 0.25% | – | –
3 | Cn1c(=O)c(C(=O)Nc2ccccc2)c(O)c2c(Cl)cccc21 [Example compound 2, 5-chloro-4-hydroxy-1-methyl-2-oxo-N-phenyl-quinoline-3-carboxamide sodium salt] | – | – | – | – | – | – | – | – | – | – | – | – | slight changes | slightly hygroscopic | 1% | around 350 °C | 350 °C ±2 °C
